Assay results published in patent US20170290336A1, “Isolated Bacterial Strain of the Genus Burkholderia and Pesticidal Metabolites Therefrom” (Marrone Bio Innovations, Inc., priority 2010, published 2017).

Legend:
[1] = tested on: green peach aphid (Myzus persicae); test: Sucking insect test in vivo on mustard plants; conditions: positive control (Avid) sprayed; 10 aphids at Day 0
Method: The in vivo efficacy of the filtered whole cell broth is tested in a plant assay with mustard plants and green peach aphid (Myzus persicae) as the test insect. Approximately one-month-old Florida Broadleaf mustard (Brassica sp.) plants are sprayed with two different concentrations (1× and 0.5×) of the filter sterilized whole cell broth of Burkholderia sp. using a Paasche airbrush. Water and a commercial product of avermectin (Avid) are used as negative and positive controls, respectively. The plants are allowed to dry on the benchtop, after which they are placed in a 6-cup plastic container with a lid with airholes. Ten aphids at various developmental stages are placed on each test plant, and the plants are incubated under growth lamps for 7 days at 25° C. Daily evaluations for the number of aphids on each plant (summarized in table Table 8 below) are made and recorded in a notebook.

B. cepacia isolates = conditions: 366 B. cepacia isolates; cited from earlier work
Burkholderia A396 = test: Antibiotic susceptibility, antibiotic disks on Muller-Hinton medium; format: cell-based, Burkholderia sp. A396; conditions: 72-hour incubation at 25° C.
Method: Antibiotic susceptibility of Burkholderia A396 is tested using antibiotic disks on Muller-Hinton medium as described in PML Microbiological's technical data sheet #535.

B. cepacia complex = conditions: 2,621 strains in B. cepacia complex from cystic fibrosis patients; cited from earlier work
[2] = tested on: barnyard grass (Echinochloa crus-galli) seedlings; test: Herbicidal laboratory assay, 96-well plate; format: in vivo; conditions: after five days; for Grass seedlings (% Mortality): 10 μg/mL concentration per well
Method: The herbicidal activity of the active compound FR90128 (MW 540) is tested in a laboratory assay using one-week old barnyard grass (Echinochloa crus-galli) seedlings in a 96-well plate platform. One grass seedling was placed in each of the wells containing 99 microliters of DI water. One microliter aliquot of the pure compound in ethanol (10 mg/mL) is added into each well, and the plate is sealed with a lid. One microliter of ethanol in 99 microliters of water is used as a negative control. The treatments were done in eight replicates, and the sealed plate is incubated in a greenhouse under artificial lights (12 hr light/dark cycle). After five days, the results are read.
(§1) The herbicidal activity of templamide A, B, FR901465 and FR90128 are tested in a laboratory assay using one-week old barnyard grass (Echinochloa crus-galli) and lettuce (Lactuca sativa L.) seedlings in a 96-well plate platform. One seedling is placed in each of the wells containing 99 microliters of DI water. Into each well, a one microliter aliquot of the pure compound in ethanol (10 mg/mL) is added, and the plate is sealed with a lid. One microliter of ethanol in 99 microliters of water is used as a negative control. The treatments are done in eight replicates, and the sealed plate is incubated in a greenhouse under artificial lights (12 hr light/dark cycle). After five days, the results are read. […] The herbicidal activity of templamide A against lettuce seedlings is slightly lower than for the grass. On the other hand, templamide B provides a better (100%) control of lettuce seedlings (used as a model system for broadleaf weeds) than templamide A (Table 11).

[3] = tested on: 1st instar Beet Army Worm (Spodoptera exigua); test: 96-well diet overlay assay; format: in vivo; conditions: 10 μg/mL concentration per well, 100 μl on diet, 6 days at 26° C.; for mortality at 10 µg/mL: Spodoptera exigua, 144 h
Method: The insecticidal activity of templamide A, B, FR901465 and FR90128 are tested in a laboratory assay using a 96-well diet overlay assay with ^1st instar Beet Armyworm larvae using microtiter plates with 200 μl of solid, artificial Beet Armyworm diet in each well. One hundred (100) μl of each test sample is pipetted on the top of the diet (one sample in each well), and the sample is let dry under flowing air until the surface is dry. Each sample was tested in six replicates, and water and a commercial Bt (B. thuringiensis) product are used as negative and positive controls, respectively. One first instar larvae of the test insect (Beet armyworm—Spodoptera exiqua) was placed in each well, and the plate was covered with plastic cover with airholes. The plates with insects were incubated at 26° C. for 6 days with daily mortality evaluations. Based on the results presented in Table 12, templamide A and B results in 40% and 80% mortality, respectively.

Botrytis cinerea = test: In vitro PDA plate assay, filter paper disks; format: cell-based; conditions: 5 days
Method: (§2) Fungicidal activity of FR90128 (MW 540) against three plant pathogenic fungi (Botrytis cinerea, Phytophtora sp., Monilinia fructicola) is tested in an in vitro PDA (potato dextrose agar) plate assay. Plates are inoculated with the fungus using a plug method. After the fungus had established and started to grow on the growth medium, eight sterile filter paper disks are placed on each plate about 1 cm from the edge in a circle. Ten microliters of ethanol solution containing 20, 15, 10, 7.5, 5, 2.5 1.25 mg FR90128/mL is added into filter paper disks, and the solution is left to evaporate. One disk imbedded with 10 μL of pure ethanol is used as a negative control. The assay is done with three replicates. Plates are incubated at room temperature for 5 days, after which the fungicidal activity is recorded by measuring the inhibition zone around each filter paper disk corresponding to different concentrations of FR90128.

Monilinia fructicola = test: In vitro PDA plate assay, filter paper disks; format: cell-based; conditions: 10 μL of 1.25-20 mg/mL on disks; 5 days
Method: as §2

Phytophtora sp. = test: In vitro PDA plate assay, filter paper disks; format: cell-based; conditions: 5 days
Method: as §2

[4] = tested on: lettuce (Lactuca sativa L.) seedlings; test: Herbicidal laboratory assay, 96-well plate; format: in vivo; conditions: 10 μg/mL concentration per well, after five days
Method: as §1

lettuce = test: 96 well plate lettuce seeding assay; format: in vivo; conditions: bioassay-guided isolation
Method: The culture broth derived from the 10-L fermentation Burkholderia (A396) in Hy soy growth medium is extracted with Amberlite XAD-7 resin (Asolkar et al., 2006) by shaking the cell suspension with resin at 225 rpm for two hours at room temperature. The resin and cell mass are collected by filtration through cheesecloth and washed with DI water to remove salts. The resin, cell mass, and cheesecloth are then soaked for 2 h in acetone after which the acetone is filtered and dried under vacuum using rotary evaporator to give the crude extract. The crude extract is then fractionated by using reversed-phase C18 vacuum liquid chromatography (H2O/CH3OH; gradient […] to 0:100%) to give 10 fractions. These fractions are then concentrated to dryness using rotary evaporator and the resulting dry residues are screened for biological activity using 96 well plate lettuce seeding assay. The active fractions are then subjected to reversed phase HPLC (Spectra System P4000 (Thermo Scientific) to give pure compounds, which are then screened in above mentioned bioassays to locate/identify the active compounds. To confirm the identity of the compound, additional spectroscopic data such as LC/MS and NMR is recorded.

[5] = 10 μL of 1.25-20 mg/mL on disks

CC[C@H](C)[C@H]1O[C@]2(C=C[C@@H]1C)C[C@@H]1C[C@@H](C/C=C(\C)[C@@H](O[C@H]3C[C@H](OC)[C@@H](O[C@H]4C[C@H](OC)[C@@H](O)[C@H](C)O4)[C@H](C)O3)[C@@H](C)/C=C/C=C3\CO[C@@H]4[C@H](O)C(C)=C[C@@H](C(=O)O1)[C@]34O)O2 [Avermectin]
# live aphids Day 2 [1]: 0 | # live aphids Day 4 [1]: 0 | # live aphids Day 7 [1]: 0

CO/N=C(\C(=O)N[C@@H]1C(=O)N2C(C(=O)O)=C(COC(N)=O)CS[C@H]12)c1ccco1 [Cefuroxime]
resistance of isolates (in words) (B. cepacia isolates): most of them are resistant

O=C(N[C@H](CO)[C@H](O)c1ccc([N+](=O)[O-])cc1)C(Cl)Cl [Chloramphenicol]
Susceptibility of Burkholderia A396 (in words) (Burkholderia A396): susceptible | strains resistant (B. cepacia complex): 85% | strains susceptible (B. cepacia complex): 15% | resistance of isolates (in words) (B. cepacia isolates): most of them are resistant

O=C(O)c1cn(C2CC2)c2cc(N3CCNCC3)c(F)cc2c1=O [Ciprofloxacin]
Susceptibility of Burkholderia A396 (in words) (Burkholderia A396): susceptible | strains susceptible (B. cepacia complex): 5% | resistance of isolates (in words) (B. cepacia isolates): most of them are resistant

C/C=C1\NC(=O)C2CSSCC/C=C/C(CC(=O)NC(C(C)C)C(=O)N2)OC(=O)C(C(C)C)NC1=O (centres unmarked) [FR90128]
state of grass seedlings (in words) ([2]; 1 microliter of 10 mg/mL in ethanol added to 99 microliters water, all eight wells): dead with no green tissue left | mortality at 10 µg/mL [3]: 90% | effect on hyphal growth of Botrytis (in words) (Botrytis cinerea; [5]): effective in controlling the hyphal growth | threshold concentration for inhibition, Botrytis (Botrytis cinerea; 10 μL per filter paper disk): 10 mg/mL | effect on the growth of Monilinia (in words) (Monilinia fructicola): no effect | effect on hyphal growth of Phytophtora (in words) (Phytophtora sp.; [5]): effective in controlling the hyphal growth | threshold concentration for inhibition, Phytophtora (Phytophtora sp.; 10 μL per filter paper disk): 1.25 mg/mL

CCC(=O)OC(C)/C=C\C(=O)NC1CC(C)C(C/C=C(C)/C=C/C2OC(C)(O)C(O)C3(CO3)C2O)OC1C (centres unmarked) [FR901465]
Grass seedlings (% Mortality) [2]: 88% | Lettuce seedlings (% Mortality) [4]: 100% | (% Mortality) [3]: 50%

C[C@@H](O)[C@H]1C(=O)N2C(C(=O)O)=C(SCCN=CN)C[C@H]12 [Imipenem]
Susceptibility of Burkholderia A396 (in words) (Burkholderia A396): susceptible | strains susceptible (B. cepacia complex): 7% | resistance of isolates (in words) (B. cepacia isolates): most of them are resistant

NC[C@H]1O[C@H](O[C@H]2[C@H](O)[C@@H](O[C@H]3O[C@H](CO)[C@@H](O)[C@H](N)[C@H]3O)[C@H](N)C[C@@H]2N)[C@H](O)[C@@H](O)[C@@H]1O [Kanamycin]
Susceptibility of Burkholderia A396 (in words) (Burkholderia A396): susceptible

CCN1CCN(C(=O)N[C@@H](C(=O)N[C@@H]2C(=O)N3[C@@H]2SC(C)(C)[C@@H]3C(=O)O)c2ccccc2)C(=O)C1=O [Piperacillin]
Susceptibility of Burkholderia A396 (in words) (Burkholderia A396): susceptible

CCC(=O)OC(C)/C=C\C(=O)NC1CC(C)C(C/C=C(C)/C=C/C2OC(C)(O)C(O)C(O)(CO)C2O)OC1C (centres unmarked) [Templamide A]
mortality at 10 µg/mL [3]: 40%

CCC(=O)OC(C)/C=C\C(=O)NC1CC(C)C(C/C=C(C)/C=C/C2OC(C)(O)C(O)C3(CO3)C2O)OC1C (centres unmarked) [Templamide B]
Grass seedlings (% Mortality) [2]: 0% | Lettuce seedlings (% Mortality) [4]: 75% | Lettuce seedlings (% Mortality) ([4]; listed as templamide B): 100% | (% Mortality) [3]: 80%

CN(C)[C@@H]1C(O)=C(C(N)=O)C(=O)[C@@]2(O)C(O)=C3C(=O)c4c(O)cccc4[C@@](C)(O)[C@H]3C[C@@H]12 [Tetracycline]
resistance of isolates (in words) (B. cepacia isolates): most of them are resistant

Cc1cc(NS(=O)(=O)c2ccc(N)cc2)no1 [sulphametoxacole]
resistance of isolates (in words) (B. cepacia isolates): most of them are resistant

COC(=O)c1nc(CC(C)C)oc1-c1c[nH]c2ccccc12 [templazole A]
herbicidal activity of pure compound (in words) (lettuce): active

templazole B
herbicidal activity of pure compound (in words) (lettuce): herbicidally active
